In patent US11512097B2, “Heterocyclic compounds as Delta-5 desaturase inhibitors and methods of use” (Amgen Inc., priority 2019, dated 2022):

Tests used:
[1] = biological target: T1, Delta-5-Desaturase (D5D), membrane preparations of D5D-overexpressing HEK293 6E cells (Homo sapiens, UniProt O60427); assay: In vitro measurement of Delta-5-Desaturase inhibitory activity using DGLA-CoA and Arachidonyl-CoA mass spectrometric assays; type: biochemical; settings: D5D membrane 10 μg/mL, one-hour incubation, average of at least two independent runs
T1 construct: expressed in transfected cells; host or cells: HEK293 6E cells (membrane preparation)
T1 sequence (O60427 whole entry, species assumed): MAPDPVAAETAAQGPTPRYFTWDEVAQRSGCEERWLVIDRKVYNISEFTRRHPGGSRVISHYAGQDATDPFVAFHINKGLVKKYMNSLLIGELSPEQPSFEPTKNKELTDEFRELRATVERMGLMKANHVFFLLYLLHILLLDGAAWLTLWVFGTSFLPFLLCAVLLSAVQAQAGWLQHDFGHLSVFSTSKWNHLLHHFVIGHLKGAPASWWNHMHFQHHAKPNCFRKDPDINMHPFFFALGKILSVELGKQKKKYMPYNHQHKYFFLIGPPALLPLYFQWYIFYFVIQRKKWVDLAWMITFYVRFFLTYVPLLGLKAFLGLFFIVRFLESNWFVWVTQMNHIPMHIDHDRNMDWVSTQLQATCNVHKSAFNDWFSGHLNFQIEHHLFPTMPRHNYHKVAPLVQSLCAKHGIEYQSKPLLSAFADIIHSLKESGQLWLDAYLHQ
Method in brief: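 Substrate mix (0.01 mM DGLA with NADH, ATP, coenzyme A) was incubated 1 h at room temperature with HEK293 6E D5D membranes at 10 μg/mL final, pH 7.5. Negative-mode SPE-MS/MS monitored DGLA-CoA (m/z 526.6) and arachidonyl-CoA (m/z 525.6). Inhibition normalised to DMSO and no-enzyme wells gave IC50s, mean of ≥2 runs.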

Delta-5-Desaturase (D5D) = biological target: T2, Delta-5-Desaturase (D5D) (Mus musculus, UniProt Q920L1); assay: In vivo measurement of Delta-5-Desaturase inhibitory activity (plasma AA/DGLA ratio in DIO mice); settings: single oral dose 30 mg/kg, relative to vehicle group
T2 construct: tissue Jackson Laboratories strain #3800050; host or cells: whole animal (DIO mice)
T2 sequence (Q920L1 1-447): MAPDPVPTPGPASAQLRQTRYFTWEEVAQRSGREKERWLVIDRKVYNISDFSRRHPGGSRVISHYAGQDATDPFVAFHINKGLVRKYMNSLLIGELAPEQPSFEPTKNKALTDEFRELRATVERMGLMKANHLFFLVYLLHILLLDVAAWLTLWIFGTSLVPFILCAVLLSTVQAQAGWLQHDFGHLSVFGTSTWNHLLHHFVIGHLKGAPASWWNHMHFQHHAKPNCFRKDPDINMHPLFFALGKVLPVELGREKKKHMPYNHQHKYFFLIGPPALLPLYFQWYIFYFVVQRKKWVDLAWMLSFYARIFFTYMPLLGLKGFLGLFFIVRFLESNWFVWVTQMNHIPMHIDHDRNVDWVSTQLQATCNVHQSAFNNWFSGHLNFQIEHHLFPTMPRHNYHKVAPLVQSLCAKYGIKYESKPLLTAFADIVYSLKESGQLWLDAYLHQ
Method: In Vivo Measurement of Delta-5-Desaturase Inhibitory Activity
Diet-induced obese (DIO; Jackson Laboratories strain #[…]) mice were used to screen for pharmacodynamic (PD) activity of test compounds. Generally, 14 to 24 week old DIO mice, were administered test compounds formulated in the vehicle of 2% hydroxypropyl methylcellulose (HPMC) and 1% Tween80. Animals were dosed on body weight by oral gavage with a single dose (30 mg/kg) for PD studies. Necropsy included plasma collection for PUFA analysis. 10 μl of plasma or standards diluted in surrogate matrix (65 g/l bovine serum albumin in Dulbecco's phosphate-buffered saline) were mixed with 10 μl of an internal standard (100 μM alpha-linolenic acid-d14 (ALA-d14, Cayman Chemical)) in a 96 well plate. 100 μl of 2N NAOH was added to the mixture for subsequent saponification at 65° C. for 1 hour. The mixture was then acidified with 50 μl of formic acid followed by two consecutive hexane extractions. Hexane (500 μl) was added and the mixture thoroughly mixed by vortexing, followed by centrifugation at 4,000 rpm for 15 min. The hexane phase was transferred to a new 1 ml 96 well plate and the remaining aqueous layer was extracted with hexane. The organic extracts were combined and the solvent was removed by placing the plate under nitrogen gas at 55° C. 250 μl of 90% methanol was added to the plate followed by vortexing for 2 minutes. 200 μl of the samples were transferred to a new 96 well polypropylene plate. The samples were analyzed on a LC-MS/MS for the following PUFAs: arachidonic acid (AA), dihomo-gamma-linolenic acid (DGLA), with ALA-d14 as the internal standard. Description of the LC-MS/MS method: 5 μl of sample was injected onto a Poroshell 120 EC-C18 3.0×50 mm, 1.9 μm id column. […] The PUFA peak areas were quantified by using the SCIEX Analyst software. […] The relative decrease of the AA/DGLA ratio of the test compound administered group relative to the vehicle administered group was calculated and used as an index for the degree of D5D inhibition. […]

Cc1nn2c(=O)c(-c3cnn(CC(F)(F)C(F)(F)F)c3)c(C(F)(F)F)nc2s1 [Example 2, 2-methyl-6-[1-(2,2,3,3,3-pentafluoropropyl)-1H-pyrazol-4-yl]-7-(trifluoromethyl)-5H-[1,3,4]thiadiazolo[3,2-a]pyrimidin-5-one]
IC50 [1]: 0.0196 µM | Average % D5D Inhibition expressed as Plasma Endogenous AA/DGLA Ratio (Delta-5-Desaturase (D5D)): 66%
